Three compounds from US7166270B1, “Methods of screening compounds useful for prevention of infection or pathogenicity” (The Netherlands Cancer Institute, priority 1995, dated 2007) can be followed below.

For this assay, the system named is Caenorhabditis elegans. The experiment in a line: C. elegans fast killing assay on PGS/PG agar. It counts as in vivo. The method, then:
The rate of killing observed under these conditions is defined as “slow killing.” Briefly, under the slow killing conditions, 5 μl of an overnight liquid culture of PA14 is spread on the center of an NGM (or M9) agar plate and grown for 37° C. for 24 hours. The plates are then allowed to cool to room temperature for several hours. Worms at the fourth larval stage (L4) are added to the agar but not in contact with the bacterial lawn. The worms typically move toward the bacterial lawn and commence feeding. In contrast, when PA14 worms were grown on peptone-glucose-sorbitol (PGS), a richer medium of higher osmolarity, a different result was obtained. When L4 worms were placed on PGS plates, the worms became sluggish, then paralyzed, and then died within 4–24 hours (FIG. 5). Some worms died even before coming into direct contact with the bacterial lawn. This more rapid killing on PGS agar is termed “fast killing.”
Nematode Killing Assay. Worm killing by P. aeruginosa was performed in a plate assay. For the fast killing assay, 5 μl of an overnight King's B (King et al. (1954) J. Lab. Clin. Med. 44:301–307) culture of PA14, or the test strains, were spread on 3.5 cm diameter plates containing PGS or PG agar. A bacterial lawn of about 2 cm diameter grew in the center of plate after incubation at 37° C. for 24 hours. After cooling to room temperature (ranges from 4–12 hours after removal from 37° C. incubator), 40 worms were added to the agar. Unless otherwise stated all worm strains were cultured at 20° C., and the fourth larval (L4) stage was used. The experiments were performed in 3–4 replicates per strain. Bristol N2 was used as the wild-type strain and E. coli OP50 for the negative control. Plates seeded with worms were incubated in 25° C. Worm mortality was scored at various time points. A worm was considered dead when no movement was detectable when touched lightly with an eye-lash pick. Slow killing assays were performed generally as described above.

For `OC[C@@H](O)[C@@H](O)[C@H](O)[C@@H](O)CO` [sorbitol], the “effect on PA14 fast killing of C. elegans (in words)” value (shortened to “effect on PA14 fast killing”) (0.15 M added to Peptone-Glucose medium, compared to 0.1 M or no sorbitol) is “significantly increased the rate of killing”.

Regarding EDDA, the “effect on PA14 fast killing” value (400 μM added to PGS) is recorded as “did not significantly affect fast killing”.

Take `[Cl][Fe]([Cl])[Cl]` [FeCl3]: the “effect on PA14 fast killing” value (100 μM added to PGS) is listed as “significantly reduced killing”.
